# Laboratory results as given in patent publication US20240368605A1, “USE OF SPLICE SWITCHING OLIGONUCLEOTIDES FOR EXON SKIPPING-MEDIATED KNOCKDOWN OF PIM2” (INSTITUT NATIONAL DE LA SANTÉ ET DE LA RECHERCHE MÉDICALE, priority 2021, published 2024).
# Experiments:
# Format in all cases: cell-based, human
# [1] = test system: PBs; test: Mitochondria/Caspase 3-driven apoptosis and viability of PBs; conditions: PBs
# Source text: Mitochondrial-driven cell death is activated once the mitochondria lose the ability to maintain the inner membrane potential, resulting in the release of proapoptotic proteins into the cytosol. Commitment towards PBs is sustained by an extensive reconfiguration of the epigenetic landscape and of gene expression patterns, both showing that the most prominent function involves cell death and survival (Caron et al., 2015). […] We then investigated the different cell subsets generated through the differentiation model at the protein level for factors involved in apoptosis triggered by mitochondria (data not shown). The PBs compared to all other subsets increased the expression of pBAD and XIAP, both proteins counteract the apoptotic pathway and were described in PIM2-induced survival effect (data not shown) (Fox, 2003; Macdonald et al., 2006; Yan et al., 2003). In accordance with this finding and despite a strong increase in procaspase 3 protein (32 kDa size), PBs decrease the autocatalytic activity of Caspase 3 and therefore the production of p19/p17 apoptosis executors as highlighted by the low levels of cleaved PARP (data not shown) (Ponder and Boise, 2019). […] In addition, we found in P2/CD23+ cells a complete degradation of PARP which illustrate the fact that the apoptosis process is consubstantially associated with the B cell terminal differentiation if cells are not otherwise protected (data not shown).
# We then inhibited PIM2 which led to an intense activation of Caspase 3 and a decrease of viability of PBs. The latter was rescued by the Caspase 3 inhibitor Q-DEVD-OPH (data not shown).
# The differentiation of immature monocytes is associated with a relocalization of nuclear p21^Cip1/WAF1 to the cytoplasm where the protein participates to apoptosis blockage (Asada, 1999). In addition, Suzuki et al. ascribed the formation of a Procaspase 3/p21^Cip1/WAF1 complex in the context of resistance to Fas-mediated cell death owing to the phosphorylation of p21 by protein kinase A (Suzuki et al., 2000). We wanted therefore to explore whether p21^Cip1/WAF1 may bind Procaspase 3 and developed to this end a FRET approach which detected a signal of energy transfer compatible with such physical interaction. […] We then confirmed the binding between p21^Cip1/WAF1 and Caspase 3 in XG21 cells and in PBs by IP (data not shown). Finally, to confirm the anti-apoptotic role of cytoplasmic p21^Cip1/WAF1 in PBs we inhibited p21^Cip1/WAF1 expression by a siRNA targeting CDKN1A in in vitro D4 B cells (data not shown) and found an activation of the execution of apoptosis characterized by the detection of the p17-fragment cleavage of caspase 3 in parallel to the cleavage of PARP (data not shown) and similar results were found in XG21 cells (data not shown). […] The role of PIM2 is to stabilize p21^Cip1/WAF1 protein in the cytoplasm allowing therefore the formation a multiprotein complex which inhibits Caspase 3 full activation (data not shown).
# [2] = test system: plasmablasts (PB); test: Generation of plasmablasts at D6 in the in vitro B cell differentiation model (flow cytometry); conditions: SSO at 2 μM added at D4
# Description: FIG. 1. Specific PIM2 inhibition affects the generation of plasmablasts • A. Diagram explaining SSO-PIM2 action. It binds to the second exon of the gene PIM2 leading in a skip of this exon during transcription and finally results to a frame shift and created an early stop-codon during translation. The protein is so a non-functional truncated protein. • B. Activated B cells were treated at D4 with an increasing dose of SSO-PIM2 and SSO-CTL (control condition) and recovered 48 hours later (at D6). PIM2 mRNA residual expression compared to the control condition adjust at 100% (mean±SD, n=3) and agarose gel of PIM2 PCR, showing exon skipping. • C. At D4, activated B cells were treated with SSO-PIM2 and SSO-CTL (control condition) at 2 μM. CD23+ aBC and PB were sorted at D6. PIM2 mRNA relative expression (mean±SD, n=4) (left) and PIM2 protein expression by western blot (middle) and immunofluorescence (right) after PIM2 inhibition. • D-E. Decrease of PB generation after PIM2 inhibition. Cells were treated with SSO-PIM2 at 2 μM (D) or increase dose of the PIM inhibitor AZD1208 (PIMi as indicated, in μM) (E) and their control condition (SSO-CTL and DMSO respectively). The untreated condition is referred as “NT” (=no treatment). Left: Absolute number of PB obtained at D6 after PIM2 inhibition. […] Right: Proportion of PB evaluated at D6 by flow cytometry after treatment with SSO-PIM2 at 2 μM. […]
# [3] = test system: PIM1; test: PIM1 expression after SSO-PIM2 treatment; conditions: 2 μM
substance,measurement,setting,value
5′-CCTCATGACGGATACCTGGAGTC-3′ (all phosphorodiamidate morpholino (PMO)) [SSO-PIM2],cleaved PARP protein,[1],production of cleaved PARP protein
same,mitochondrial depolarization,[1],strong mitochondrial depolarization
same,pBAD and XIAP protein,[1],decrease of pBAD and XIAP
same,generated PB at D6,[2],severe decrease in generated PB
same,effect on PIM1 expression,[3],without affecting PIM1 expression
